The target of one assay is T1, TLR7 (Homo sapiens, UniProt Q9NYK1).
T1 construct: expressed in transfected cells; host or cells: HEK/293 cells carrying TLR7 and an NF-kB luciferase reporter
T1 sequence (Q9NYK1 27-1049): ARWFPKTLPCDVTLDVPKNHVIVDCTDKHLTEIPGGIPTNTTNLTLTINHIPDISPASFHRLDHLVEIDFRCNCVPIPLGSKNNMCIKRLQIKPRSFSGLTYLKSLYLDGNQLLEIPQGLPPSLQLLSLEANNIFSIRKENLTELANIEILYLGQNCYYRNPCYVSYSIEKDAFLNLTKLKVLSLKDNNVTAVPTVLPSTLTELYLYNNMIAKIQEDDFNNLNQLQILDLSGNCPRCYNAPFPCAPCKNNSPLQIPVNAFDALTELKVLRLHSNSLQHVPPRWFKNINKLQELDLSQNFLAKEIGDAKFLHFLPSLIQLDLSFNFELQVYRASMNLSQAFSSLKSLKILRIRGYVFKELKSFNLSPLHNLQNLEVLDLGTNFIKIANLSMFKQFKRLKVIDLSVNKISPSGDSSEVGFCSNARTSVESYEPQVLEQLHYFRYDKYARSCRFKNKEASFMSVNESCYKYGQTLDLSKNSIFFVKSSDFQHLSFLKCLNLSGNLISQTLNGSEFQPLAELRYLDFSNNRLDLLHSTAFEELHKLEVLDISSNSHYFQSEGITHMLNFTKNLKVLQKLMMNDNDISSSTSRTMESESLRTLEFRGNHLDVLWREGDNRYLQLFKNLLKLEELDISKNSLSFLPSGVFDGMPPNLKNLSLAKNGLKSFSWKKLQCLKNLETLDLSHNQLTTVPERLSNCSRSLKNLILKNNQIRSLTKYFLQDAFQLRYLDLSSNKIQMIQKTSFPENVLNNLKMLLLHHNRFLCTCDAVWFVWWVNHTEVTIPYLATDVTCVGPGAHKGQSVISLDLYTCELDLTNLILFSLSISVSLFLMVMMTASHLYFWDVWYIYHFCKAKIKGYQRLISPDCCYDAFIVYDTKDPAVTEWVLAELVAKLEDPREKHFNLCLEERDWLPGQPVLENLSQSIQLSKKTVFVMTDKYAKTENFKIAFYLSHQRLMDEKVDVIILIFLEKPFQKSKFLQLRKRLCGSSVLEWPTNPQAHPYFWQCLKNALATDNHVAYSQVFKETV
As to the kind of experiment: HEK/293 TLR7 Cell Assay. The assay is classed as cell-based. Conditions: TLR7/NFKb HEK cells, R848 agonist 10 uM final concentration, Steady-Glo readout; read-out: TLR7 potency. In a few lines:
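TLR7/NF-κB reporter HEK293 cells, 5000/well, cultured 24 h, then preincubated 30 min with compound before R848 agonist (10 uM final). After 5 h stimulation, Steady-Glo luciferase luminescence read.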

The target of the next assay is T2, TLR8 (Homo sapiens, UniProt Q9NR97).
T2 construct: expressed in transfected cells; host or cells: HEK/293 reporter cells (NF-kB luciferase)
T2 sequence (Q9NR97 27-1041): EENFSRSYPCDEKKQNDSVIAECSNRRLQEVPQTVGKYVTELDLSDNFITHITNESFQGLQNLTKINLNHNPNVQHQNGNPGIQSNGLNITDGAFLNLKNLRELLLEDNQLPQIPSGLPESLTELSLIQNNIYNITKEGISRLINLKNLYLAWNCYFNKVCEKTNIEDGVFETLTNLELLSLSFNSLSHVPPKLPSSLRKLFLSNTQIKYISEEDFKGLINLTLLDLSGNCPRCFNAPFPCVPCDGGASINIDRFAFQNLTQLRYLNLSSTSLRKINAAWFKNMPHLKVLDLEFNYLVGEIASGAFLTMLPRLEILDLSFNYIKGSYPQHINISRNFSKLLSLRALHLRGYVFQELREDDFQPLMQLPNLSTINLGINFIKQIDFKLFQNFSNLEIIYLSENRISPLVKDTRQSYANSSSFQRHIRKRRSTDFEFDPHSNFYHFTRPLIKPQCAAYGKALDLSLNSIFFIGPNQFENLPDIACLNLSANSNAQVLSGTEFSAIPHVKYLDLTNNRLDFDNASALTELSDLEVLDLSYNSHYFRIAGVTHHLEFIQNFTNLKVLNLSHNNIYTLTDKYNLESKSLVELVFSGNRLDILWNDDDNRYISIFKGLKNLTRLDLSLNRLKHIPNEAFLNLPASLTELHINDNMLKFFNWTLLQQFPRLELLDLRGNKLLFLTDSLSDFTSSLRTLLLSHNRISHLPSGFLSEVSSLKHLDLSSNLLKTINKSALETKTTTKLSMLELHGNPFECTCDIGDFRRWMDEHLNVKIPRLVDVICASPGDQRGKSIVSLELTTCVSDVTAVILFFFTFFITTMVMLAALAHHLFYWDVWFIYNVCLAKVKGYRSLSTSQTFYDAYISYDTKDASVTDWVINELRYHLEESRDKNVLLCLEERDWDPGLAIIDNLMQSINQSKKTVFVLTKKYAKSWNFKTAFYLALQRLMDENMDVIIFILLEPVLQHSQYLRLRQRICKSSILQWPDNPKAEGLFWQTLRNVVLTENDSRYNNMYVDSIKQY
In words: HEK/293 TLR8 Cell Assay. As to conditions: HEK cells, R848 agonist 30 uM final concentration, Steady-Glo readout; read-out: TLR8 potency. Format: cell-based.

As to `CC(=O)NCCN[C@@H]1C[C@H](C(F)(F)F)CN(c2ccc(C#N)c3ncccc23)C1` [Example 44, N-{2-[(3R,5S)-1-(8-Cyano-quinolin-5-yl)-5-trifluoromethyl-piperidin-3-ylamino]-ethyl}-acetamide], the figures for the IC50 on TLR7 and at TLR8 were under 75 nM and 75 to 150 nM, respectively.

Consider `C[C@H]1C[C@@H](NCCNC(N)=O)CN(c2ccc(C(F)(F)F)c3ncccc23)C1` [Example 45, {2-[(3R,5S)-5-Methyl-1-(8-trifluoromethyl-quinolin-5-yl)-piperidin-3-ylamino]-ethyl}-urea], for which the IC50 at TLR7 and on TLR8 was under 75 nM each time.

As to `CCS(=O)(=O)NCCN[C@@H]1C[C@H](C)CN(c2ccc(C#N)c3nccnc23)C1` [Example 46, Ethane sulfonic acid {2-[(3R,5S)-1-(8-cyano-quinoxalin-5-yl)-5-methyl-piperidin-3-ylamino]-ethyl}-amide], the results for the IC50 on TLR7 and at TLR8 were 75 to 150 nM and under 75 nM, respectively.

As for `C[C@H]1C[C@@H](NCC2COC2)CN(c2ccc(C#N)c3nccnc23)C1` [Example 47, 8-{(3S,5R)-3-Methyl-5-[(oxetan-3-ylmethyl)-amino]-piperidin-1-yl}-quinoxaline-5-carbonitrile], the IC50 at TLR7 and on TLR8 was under 75 nM each time.

As for `C[C@H]1C[C@@H](NCC2CCC(=O)N2)CN(c2ccc(C(F)(F)F)c3ncccc23)C1` (stereo partly drawn) [Example 48, 5-{[(3R,5S)-5-Methyl-1-(8-trifluoromethyl-quinolin-5-yl)-piperidin-3-ylamino]-methyl}-pyrrolidin-2-one], the IC50 on TLR7 and on TLR8 was under 75 nM each time.

Take `CC(=O)NCCN[C@@H]1C[C@H](C)CN(c2ccc(C#N)c3nccnc23)C1` [Example 49, N-{2-[(3R,5S)-1-(8-Cyano-quinoxalin-5-yl)-5-methyl-piperidin-3-ylamino]-ethyl}-acetamide]: the IC50 at TLR7 and at TLR8 was under 75 nM each time.

Consider `C[C@H]1C[C@@H](NCC2(O)CCOCC2)CN(c2ccc(C(F)(F)F)c3ncccc23)C1` [Example 50, 4-{[(3R,5S)-5-Methyl-1-(8-trifluoromethyl-quinolin-5-yl)-piperidin-3-ylamino]-methyl}-tetrahydro-pyran-4-ol], for which the IC50 at TLR7 and on TLR8 was under 75 nM throughout.

In the case of `C[C@H]1C[C@@H](NCC(=O)N2CC(O)C2)CN(c2ccc(C(F)(F)F)c3ncccc23)C1` [Example 51, 1-(3-Hydroxy-azetidin-1-yl)-2-[(3R,5S)-5-methyl-1-(8-trifluoromethyl-quinolin-5-yl)-piperidin-3-ylamino]-ethanone], the IC50 on TLR7 and on TLR8 was under 75 nM each time.

For `CONC(=O)CCCN[C@@H]1C[C@H](C)CN(c2ccc(C(F)(F)F)c3nccnc23)C1` [Example 52, N-Methoxy-4-[(3R,5S)-5-methyl-1-(8-trifluoromethyl-quinoxalin-5-yl)-piperidin-3-ylamino]-butyramide], the IC50 at TLR7 and at TLR8 was under 75 nM throughout.

In the case of `C[C@H]1C[C@@H](NCCC(=O)N2CC(O)C2)CN(c2ccc(C(F)(F)F)c3ncccc23)C1` [Example 53, 1-(3-Hydroxy-azetidin-1-yl)-3-[(3R,5S)-5-methyl-1-(8-trifluoromethyl-quinolin-5-yl)-piperidin-3-ylamino]-propan-1-one], the IC50 on TLR7 was under 75 nM; at TLR8 it was 75 to 150 nM.

With `C[C@H]1C[C@@H](NCCC(=O)NC2CS(=O)(=O)C2)CN(c2ccc(C(F)(F)F)c3ncccc23)C1` [Example 54, N-(1,1-Dioxo-1lambda6-thietan-3-yl)-3-[(3R,5S)-5-methyl-1-(8-trifluoromethyl-quinolin-5-yl)-piperidin-3-ylamino]-propionamide], the IC50 at TLR7 and on TLR8 was under 75 nM in each case.

Regarding `CONC(=O)CCN[C@@H]1C[C@H](C)CN(c2ccc(C(F)(F)F)c3ncccc23)C1` [Example 55, N-Methoxy-3-[(3R,5S)-5-methyl-1-(8-trifluoromethyl-quinolin-5-yl)-piperidin-3-ylamino]-propionamide], the IC50 at TLR7 and on TLR8 was under 75 nM in each case.

As to `CNC(=O)CCN[C@@H]1C[C@H](C)CN(c2ccc(C(F)(F)F)c3ncccc23)C1` [Example 56, N-Methyl-3-[(3R,5S)-5-methyl-1-(8-trifluoromethyl-quinolin-5-yl)-piperidin-3-ylamino]-propionamide], the IC50 on TLR7 is 75 to 150 nM; at TLR8, under 75 nM.

For `C[C@H]1C[C@@H](N)CN(c2cc(F)c(C#N)c3ncccc23)C1` [Example 57, 5-((3R,5S)-3-Amino-5-methyl-piperidin-1-yl)-7-fluoro-quinoline-8-carbonitrile], the IC50 on TLR7 and at TLR8 was under 75 nM each time.

As to `C[C@H]1C[C@@H](NC(=O)Cc2cnn(C)c2)CN(c2cc(F)c(C#N)c3ncccc23)C1` [Example 58, N-[(3R,5S)-1-(8-Cyano-7-fluoro-quinolin-5-yl)-5-methyl-piperidin-3-yl]-2-(1-methyl-1H-pyrazol-4-yl)-acetamide], the IC50 on TLR7 is over 150 nM; on TLR8, 75 to 150 nM.

For the compound `C[C@H]1C[C@@H](NC(=O)CC2CN(C)C2)CN(c2cc(F)c(C#N)c3ncccc23)C1` [Example 59, N-[(3R,5S)-1-(8-Cyano-7-fluoro-quinolin-5-yl)-5-methyl-piperidin-3-yl]-2-(1-methyl-azetidin-3-yl)-acetamide], the IC50 is 75 to 150 nM on TLR7 and over 150 nM at TLR8.

In the case of `N#Cc1ccc(N2C[C@H](NC(=O)C(O)CO)C[C@H](C(F)(F)F)C2)c2cccnc12` (stereo partly drawn) [Example 60, N-[(3R,5S)-1-(8-Cyano-quinolin-5-yl)-5-trifluoromethyl-piperidin-3-yl]-2,3-dihydroxy-propionamide], the IC50 at TLR7 and on TLR8 was under 75 nM each time.

Consider `CN1CCC(C(=O)N[C@@H]2C[C@H](C(F)(F)F)CN(c3ccc(C#N)c4ncccc34)C2)CC1` [Example 61, 1-Methyl-piperidine-4-carboxylic acid [(3R,5S)-1-(8-cyano-quinolin-5-yl)-5-trifluoromethyl-piperidin-3-yl]-amide], for which the IC50 at TLR7 and on TLR8 was under 75 nM in each case.

For `N#Cc1ccc(N2C[C@H](NC(=O)CO)C[C@H](C(F)(F)F)C2)c2cccnc12` [Example 62, N-[(3R,5S)-1-(8-Cyano-quinolin-5-yl)-5-trifluoromethyl-piperidin-3-yl]-2-hydroxy-acetamide], the IC50 at TLR7 and on TLR8 was over 150 nM each time.
